Entries after “also recorded” stand apart in the source; their conditions may differ.
Assays:
[1] = target: T1, FAP (Homo sapiens, UniProt Q12884); assay: Competition assay against ^68Ga-FAPI-02 in U87MG cells; conditions: unlabeled ligand competing with ^68Ga-FAPI-02, 1 h, read-out: IC50 (binding affinity to FAP in vitro)
T1 construct: endogenous in cells; host or cells: U87MG cells
T1 sequence (Q12884 1-760): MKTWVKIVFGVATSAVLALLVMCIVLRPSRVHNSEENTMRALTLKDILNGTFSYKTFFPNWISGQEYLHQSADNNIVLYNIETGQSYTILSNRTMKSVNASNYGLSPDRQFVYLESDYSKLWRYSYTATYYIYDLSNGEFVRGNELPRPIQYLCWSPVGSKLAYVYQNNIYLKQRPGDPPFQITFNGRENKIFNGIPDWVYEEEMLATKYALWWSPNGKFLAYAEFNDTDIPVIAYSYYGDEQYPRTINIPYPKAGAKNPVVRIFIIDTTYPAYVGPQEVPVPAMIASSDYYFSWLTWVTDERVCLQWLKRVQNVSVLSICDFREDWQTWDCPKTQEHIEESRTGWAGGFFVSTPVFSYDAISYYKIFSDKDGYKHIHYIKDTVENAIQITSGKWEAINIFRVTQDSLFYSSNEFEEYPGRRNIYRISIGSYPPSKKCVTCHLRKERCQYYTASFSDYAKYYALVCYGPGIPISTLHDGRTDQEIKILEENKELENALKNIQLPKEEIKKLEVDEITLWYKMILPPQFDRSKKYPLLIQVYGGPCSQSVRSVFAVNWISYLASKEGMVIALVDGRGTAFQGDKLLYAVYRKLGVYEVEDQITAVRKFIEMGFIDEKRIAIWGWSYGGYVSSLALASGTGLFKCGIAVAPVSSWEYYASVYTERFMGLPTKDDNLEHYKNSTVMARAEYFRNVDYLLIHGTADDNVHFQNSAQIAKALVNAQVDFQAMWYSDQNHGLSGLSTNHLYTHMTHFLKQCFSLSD
Procedure: (§1) U87MG cells were cultivated in Dulbecco modified Eagle medium (DMEM) containing 10% fetal calf serum (FCS) at 37 ℃ in 5% carbon dioxide (CO2). For cell uptake experiment, U87MG cells were seeded in 24-well plates (2 × 10^5/well) overnight. The cells were incubated with 37 kBq of ^177Lu-EB-FAPI series compounds in 0.5 mL of medium for 0.5, 1, 2, 4, 8 and 24 h at 37 °C. In the blocking group, FAPI-02 (10 μg/well) were added as inhibitors of the labeled precursors. For competition assays, U87MG cells were incubated simultaneously with different concentrations (10^-5-10^-11 M) of unlabeled FAPI-02 or EB-FAPI-B1 and ^68Ga-FAPI-02 in 0.4 mL of fresh medium for 1 h. At the corresponding time points, the medium was removed and the cells were washed twice with cold PBS (pH 7.4) and subsequently lysed with 1 mL of NaOH (0.1 M). Cell lysates was collected and the radioactivity was determined using a γ-counter. The cell uptake experiment was repeated four times for each time point and the competition assays were repeated three times at different concentrations.

[2] = tested on: U87MG tumor; assay: Small animal PET imaging in U87MG tumor-bearing mice; type: in vivo; conditions: 1 h p.i.
Procedure: All animal studies were approved by the Animal Care and Use Committee of Xiamen University and carried out in compliance with the national laws related to the conduct of animal experimentation. 6-week-old female BALB/c nude mice from Beijing Vital River Laboratory Animal Technology Co., Ltd. were used in this study. The right upper limbs of BALB/c nude mice were subcutaneously inoculated with the suspension of U87MG cells (5 × 10^6 cells in 100 μL of PBS). […] PET scans were performed by using Inveon small-animal PET scanner (Siemens Preclinical Solution). […] At 1 h p.i., the mice were anaesthetized and placed on the bed for PET imaging. […] PET images were reconstructed with attenuation correction and analyzed through drawing regions of interest (ROIs).

[3] = tested on: U87MG cells; assay: Cell uptake and blocking assay; type: cell-based
Procedure: as §1

[4] = tested on: U87MG tumor; assay: Small animal SPECT/CT imaging in U87MG tumor-bearing mice; type: in vivo, BALB/c nude mice
Procedure: (§2) All animal studies were approved by the Animal Care and Use Committee of Xiamen University and carried out in compliance with the national laws related to the conduct of animal experimentation. 6-week-old female BALB/c nude mice from Beijing Vital River Laboratory Animal Technology Co., Ltd. were used in this study. The right upper limbs of BALB/c nude mice were subcutaneously inoculated with the suspension of U87MG cells (5 × 10^6 cells in 100 μL of PBS). The mice underwent radioligand therapy experiments when the tumor volume reached about 100 mm^3 and small animal SPECT imaging studies when the tumor volume reached about 500 mm^3.
SPECT/CT imaging studies were performed using a nanoSPECT/CT preclinical scanner (Mediso, Hungary). About 37 MBq of radiotracers were injected intravenously into female ICR mice and U87MG tumor-bearing mice, whole body SPECT images were acquired at 1, 4, 24, 48, 72 and 96 h p.i. The acquisition parameters were as follows: 56.1, 112.9 and 208.4 keV energy peaks for ^177Lu, window width of 20%, matrix of 256 × 256, medium zoom, and 48 frames. Mice were anaesthetized using 1.5% isoflurane to maintain spontaneous breathing during imaging.

[5] = Safety evaluation in the therapy study (body weight, H&E staining of major organs); type: in vivo, BALB/c nude mice
Procedure: (§3) Two weeks after inoculation of U87MG tumor cells, the average tumor volume reached about 100 mm^3 in BALB/c nude mice. The U87MG tumor-bearing mice were randomly divided into 4 groups (n = 8/group), and subsequently treated with saline, 30 MBq ^177Lu-EB-FAPI-B1, 18.5 MBq ^177Lu-EB-FAPI-B1, 7.4 MBq ^177Lu-EB-FAPI-B1, respectively. Tumor volumes and body weights of all mice were monitored every two days. Individual tumor size was calculated with the formula: length × width^2/2. The mice were euthanized when the tumor volume exceeded 1500 mm^3. Histopathologic staining was performed with an anti-human FAP mAb (ab207178, Abcam). Hematoxylin and eosin (H&E) staining and terminal deoxynucleotidyl transferase-mediated dUTP-biotin nick-end labeling (TUNEL) analysis were carried out using a commercially available kit (Beyotime).

[6] = Biodistribution in healthy ICR mice; type: in vivo
Procedure: (§4) In biodistribution study of normal mice, healthy ICR mice (18-20 g) were randomly divided into 6 groups (n = 4/group), injected with radiotracers (740 kBq in 0.1 mL saline) and sacrificed at 0.25, 1, 4, 8, 24 and 48 h p.i. Tissues and organs of interest were collected, wet weighed, and counted by a γ-counter. In addition, BALB/c nude mice bearing U87MG tumors were injected with radiotracers for SPECT imaging, and then, sacrificed at 96 h p.i., the major organs and tumors were collected and weighed. Radioactivity was detected using a γ-counter, and the results were calculated as percentage of injected dose per gram (%ID/g).

[7] = Octanol/water partition coefficient; type: physicochemical
Procedure: A detailed scheme of chemical synthesis protocol is elaborated in the supplementary materials. To radiolabel the precursor with ^177Lu, 185-740 MBq of ^177LuCl3 was firstly diluted with 0.2 mL of 0.5 M NH4OAc (pH = 5.5) before incubating with EB-FAPI-Bn (50 μg dissolved in 10 μL dimethyl sulfoxide). The mixture was heated and thoroughly mixed for 30 min at 95 °C. Radiolabeling efficiency and radiochemical purity were tested using thin-layer chromatography (TLC) and high-performance liquid chromatography (HPLC). Radiolabeling of ^68Ga was performed by incubating with 50 μg precursor (pH = 4.5-5.0) at 95 ℃ for 10 min. The ^68Ga-labeled product was purified by C18 column extraction and the radiochemical purity was determined by HPLC. Stability of ^177Lu-EB-FAPI-B1, ^177Lu-EB-FAPI-B2, ^177Lu-EB-FAPI-B3 and ^177Lu-EB-FAPI-B4 (See Figure 1 for the structures) in PBS and saline were monitored up to 24 h using radio-HPLC. More information about radiochemistry, quality control and octanol/water partition coefficient can be found in supplemental information.

[8] = tested on: U87MG tumor; assay: Radioligand therapy study and tumor histopathology in U87MG tumor-bearing mice; type: in vivo, BALB/c nude mice
Procedure: as §2, §3

[9] = In vitro stability in PBS and saline (radio-HPLC/TLC); type: physicochemical
[10] = tested on: U87MG tumor; assay: Biodistribution in U87MG tumor-bearing mice at 96 h p.i.; set-up: species or system BALB/c nude mice; conditions: ex vivo counting
Procedure: as §2, §4

[11] = SPECT, value given with the increase from 24 h to 96 h p.i.

## N#C[C@@H]1CCCN1C(=O)CNC(=O)c1ccnc2ccc(OCCCN3CCN(C(=O)CN4CCN(CC(=O)O)CCN(CC(=O)O)CCN(CC(=O)O)CC4)CC3)cc12 [FAPI-02]
[1]
  IC50: 0.0109 µM

## Cc1cc(-c2ccc(NC(=O)C(CCCCNC(=O)CCC(=O)N3CCN(CCCOc4ccc5nccc(C(=O)NCC(=O)N6CCC[C@H]6C#N)c5c4)CC3)NC(=O)CN3CCN(CC(=O)[O-])CCN(CC(=O)[O-])CCN(CC(=O)[O-])CC3)c(C)c2)ccc1N=Nc1ccc2c(S(=O)(=O)O)cc(S(=O)(=O)O)c(N)c2c1O.[68Ga+3] (some centres unmarked) [^68Ga-EB-FAPI-B1]
[2]
  T/M ratio compared with ^68Ga-FAPI-02: higher T/M ratio
  tumor uptake value: 3.5 ± 0.22 %ID/g

## N#C[C@@H]1CCCN1C(=O)CNC(=O)c1ccnc2ccc(OCCCN3CCN(C(=O)CN4CCN(CC(=O)[O-])CCN(CC(=O)[O-])CCN(CC(=O)[O-])CC4)CC3)cc12.[68Ga+3] [^68Ga-FAPI-02, reference compound]
[2]
  tumor uptake value: 0.85 ± 0.21 %ID/g
[2]; unlabeled EB-FAPI-B1 as competitor
  tumor uptake in the presence of the blocking agent EB-FAPI-B1: decreased more than half

## Cc1cc(-c2ccc(NC(=O)C(CCCCNC(=O)CCC(=O)N3CCN(CCCOc4ccc5nccc(C(=O)NCC(=O)N6CCC[C@H]6C#N)c5c4)CC3)NC(=O)CN3CCN(CC(=O)[O-])CCN(CC(=O)[O-])CCN(CC(=O)[O-])CC3)c(C)c2)ccc1N=Nc1ccc2c(S(=O)(=O)O)cc(S(=O)(=O)O)c(N)c2c1O.[177Lu+3] (some centres unmarked) [^177Lu-EB-FAPI-B1]
[3]; blocking group
  cellular uptake with blocking by unlabeled inhibitor: 2.25 ± 0.14%
[3]; incubation for 24 h
  highest cellular uptake: 9.97 ± 0.42%
[4]; 4 h p.i.
  tumor uptake on SPECT images: obvious tumor uptake was observed
[4]; SPECT, 24 h p.i.
  tumor-to-muscle ratio (T/M): 12.29 ± 0.85
[4]; SPECT, 72 h p.i.
  tumor-to-muscle ratio (T/M), peak: 18.67 ± 3.75
[4]; SPECT, 96 h p.i.
  tumor-to-muscle ratio (T/M): 14.15 ± 0.13
[4]; [11]
  tumor-to-heart ratio (T/H): 14.28 ± 2.46
  tumor-to-kidney ratio (T/K): 2.35 ± 0.61
  tumor-to-liver ratio (T/L): 3.73 ± 1.21
[5]; all treatment groups (30, 18.5, 7.4 MBq)
  body weight change: slight body weight loss
[5]; heart, liver, spleen, lung, kidneys after treatment
  H&E staining of major organs (safety evaluation): negligible side effect; also recorded: no distinct tissue damage
[6]; 4 h p.i.
  blood uptake: 21.93 ± 2.13 %ID/g
[6]; 8 h p.i.
  kidney uptake (highest value): 16.38 ± 2.98 %ID/g
[6]; 48 h p.i.
  kidney uptake: 8.13 ± 1.36 %ID/g
[7]
  Octanol/water partition coefficient (Log P): -1.90 ± 0.12
[8]; 18.5 MBq group versus saline group
  TUNEL staining of excised tumor: remarkably more cell apoptosis
[8]; single dose of 30, 18.5 or 7.4 MBq (all three doses), day 0 to day 22
  relative tumor size: no more than 5
[8]; single dose of 30 MBq, 18.5 MBq or 7.4 MBq
  tumor growth compared to the saline group: noteworthy tumor growth inhibitions; also recorded: noteworthy tumor growth delay
[8]; treatment groups versus saline group
  H&E staining of excised tumor: large necrotic areas
[9]; PBS (pH 7.4) and saline
  time stable in PBS (pH 7.4) and saline: at least 24 h
[9]; PBS and saline, at 24 h and 48 h
  radiochemistry purity after incubation: over 95%
[10]
  tumor uptake: 12.42 ± 1.54 %ID/g

## N#C[C@@H]1CCCN1C(=O)CNC(=O)c1ccnc2ccc(OCCCN3CCN(C(=O)CN4CCN(CC(=O)[O-])CCN(CC(=O)[O-])CCN(CC(=O)[O-])CC4)CC3)cc12.[177Lu+3] [^177Lu-FAPI-02, reference compound]
[6]; 4 h p.i.
  blood accumulation relative to ^177Lu-EB-FAPI-B1: about 1%
  blood uptake: 0.23 ± 0.06 %ID/g
